Patent publication US20130281313A1, “PROGNOSTIC AND/OR PREDICTIVE BIOMARKERS AND BIOLOGICAL APPLICATIONS THEREOF” (INSTITUT GUSTAVE ROUSSY, priority 2010, published 2013)

Key:
[1] = system: isolated rat liver mitochondria; test: Large-amplitude swelling of isolated mitochondria; settings: cell-free experiments
Method: Mitochondria were isolated from the liver of male Wistar Kyoto rats (Charles River Laboratories Inc., Wilmington, USA) by differential centrifugation, as previously described {Zischka, 2008}. Briefly, immediately after organ collection, livers were homogenized with a glass teflon homogenizer in an isolation buffer containing 10 mM triethanolamine, 10 mM acetic acid, 280 mM sucrose, 0.2 mM EGTA (pH adjusted to 7.4 with KOH). Homogenates were cleared from debris and nuclei by two rounds of centrifugation at 750 G (10 min, 4° C.). […]
For large-amplitude swelling determinations, mitochondria were resuspended in swelling buffer (10 mM Tris-MOPS pH 7.4, 200 mM sucrose, 5 mM succinate, 1 mM phosphate, 10 μM EGTA and 2 μM rotenone) and pre-incubated for 5 min at RT with swelling buffer (negative control) or either of the following permeability transition inhibitors: 5 or 10 μM bongkrekic acid (BA), 1 or 5 μM cyclosporine A (CsA); 0.1 or 0.5 mM reduced glutathione (GSH) or 0.5 or 2 mM N-acetylcysteine (NAC). […] Permeability transition-induced large-amplitude swelling was assessed by measuring light scattering of mitochondrial suspensions at 540 nm on a standard microplate absorbance reader (μ-Quant™, Bio-Tek, Bad Friedrichshall, Germany) every 5 min over a total assay time of 30 min (at RT), as previously described {Zischka, 2008}. […]

[2] = system: A549 cells; test: Transcriptome studies (mRNA microarrays); assay type: cell-based, human
Method: NSCLC A549 cells were treated with 100 μM CDDP, 75 μM C2-CER or 100 μM CdCl2 for 12 h, or with 50 μM CDDP, C2-CER or CdCl2 for 24 h. Thereafter, cells were collected and lysed for RNA extraction of following established procedures {de La Motte Rouge, 2007}. mRNA expression changes were quantified on G4112A 44 k Whole Human Genome Oligo Microarrays (Agilent Technologies, Santa Clara, USA), as previously reported {Castedo, 2006}. mRNA microarrays underwent standardized post-hybridization processing, image acquisition and analysis (see below) {Castedo, 2006}.
Data from microarray experiments were analyzed with the Rosetta Resolver® System (Rosetta Biosoftware, Seattle, USA). The threshold for statistical significance of probe signals (Intensity) was set at p=10^−5. […] For each mRNA, fold change (FC) was then defined as Intensitysample/Intensitycontrol when Intensitysample>Intensitycontrol, or as—(Intensitycontrol/Intensitysample) when Intensitysample<Intensitycontrol. Ratios were calculated as Intensitysample/Intensitycontrol.

[3] = system: A549 cells; test: Cytofluorometric assessment of cell death (DiOC6(3)/PI co-staining); assay type: cell-based, human; settings: A549 cells, 75 μM CDDP
Method: Unless otherwise specified, chemicals were purchased from Sigma-Aldrich (St. Louis, USA), culture media and supplements for cell culture from Gibco-Invitrogen (Carlsbad, USA) and plasticware from Corning (Corning, USA). […] Orlistat (Xenical®) was obtained from Roche (Basel, Switzerland). […] Undissolved material was removed by two sequential rounds of centrifugation at 12,000 G (5 min, room temperature, RT), supernatants were collected and stored at −80° C. under protection from light until use. In low-throughput experiments, all cell lines were treated with 2.5 mM pyridoxine (PN), exception made for A549 cells that received 5 mM PN.
To avoid depleting the siRNA library of selected sequences, siRNAs for validation experiments were purchased as custom molecules from Sigma-Aldrich. For low-throughput experiments, (see below for the transfection protocols employed in the siRNA screen), siRNA were transfected in A549 cells with Oligofectamine™ reagent (Invitrogen), following the manufacturer's instructions. Transfection with a non-targeting siRNA (siUNR) was employed as a negative control condition. Forty-eight hours after transfection, siRNA-mediated target downregulation was assessed by immunoblotting (see below).
All cytofluorometric determinations were carried out a FACSCalibur or a FACScan cytofluorometer (BD Biosciences, San Jose, USA) equipped with a 70 μm nozzle.
First line statistical analysis of cytofluorometric results was performed by using the CellQuest™ software (BD Biosciences), by gating on the events characterized by normal forward scatter and side scatter parameters. Apoptosis- and cell cycle-related data were further analyzed with Microsoft Excel (Microsoft Co., Redmond, USA) and statistical significance was assessed by means of two-tailed Student's t test (p<0.05).

[4] = system: Saccharomyces cerevisiae; test: Yeast clonogenic survival; assay type: cell-based; settings: yeast cells, pre-incubated with 1 mM AOAA before CDDP
Method: The haploid WT Saccharomyces cerevisiae strain BY4741 (MATa; his3Δ1; leu2Δ0; met15Δ0; ura3Δ0), its diploid counterpart BY4743 (MATa/MATα; his3Δ1/his3Δ1; leu2Δ0/leu2Δ0; MET15/met15Δ0; LYS2/lys2Δ0; ura3Δ0/ura3Δ0) as well as the null mutants employed in this study were obtained from were obtained from Euroscarf (Frankfurt, Germany). For large-scale experiments (see also FIG. 9), yeast cells were cultured on a routine basis at 28° C., on yeast extract peptone dextrose (YEPD) medium containing 1% yeast extract (Difco Laboratories, Detroit, USA), 2% bacto peptone (Difco Laboratories) and […] {Madeo, 2002}. […]
In all settings, cell number was then quantified by means of a CASY® cell counter (Schärfe System, Reutlingen, Germany) and 500 cells from each experimental condition were seeded on three parallel YEPD plates. Following 3 days of incubation at 28° C., plates were finally subjected to the quantification of colony forming units (CFUs). For each genotype or experimental condition, clonogenic survival was calculated as the ratio between the number of CFUs observed in treated and untreated conditions.

[5] = 12 h, 100 μM CDDP, 75 μM C2-CER or 100 μM CdCl2, vs untreated cells
[6] = 24 h, 50 μM CDDP, C2-CER or CdCl2, vs untreated cells

[Cl][Cd][Cl] [CdCl2, cadmium chloride]
direct mitochondrion-permeabilizing effects [1]: can mediate direct mitochondrion-permeabilizing effects
Fold change, ADAR (NM_001111) transcript [2, 5]: n.s.
Fold change, ALDH7AT (NM_001182) transcript [2, 5]: −1.65
Fold change, CD151 (NM_004357) transcript [2, 5]: n.s.
Fold change, CLIC1 (NM_001288) transcript [2, 5]: 4.60
Fold change, COMMO9 (NM_014186) transcript [2, 5]: 1.85
Fold change, COX5B (NM_001802) transcript [2, 5]: n.s.
Fold change, COX7C (NM_001867) transcript [2, 5]: n.s.
Fold change, DHRSX (NM_145177) transcript [2, 5]: 1.64
Fold change, EBP (NM_006579) transcript [2, 5]: n.s.
Fold change, EEF2 (NM_001901) transcript [2, 5]: n.s.
Fold change, FDXK (NM_003681) transcript [2, 5]: n.s.
Fold change, FN3KRP (NM_024619) transcript [2, 5]: −3.34
Fold change, HDLBP (NM_005336) transcript [2, 5]: n.s.
Fold change, HGD (NM_000187) transcript [2, 5]: −2.37
Fold change, IL6R (NM_000565) transcript [2, 5]: n.s.
Fold change, KHSRP (NM_003685) transcript [2, 5]: n.s.
Fold change, LOC389727 (NM_372092) transcript [2, 5]: 2.09
Fold change, MAT2A (NM_005911) transcript [2, 5]: −4.30
Fold change, MOL1 (NM_021960) transcript [2, 5]: 1.37
Fold change, MPP6 (NM_016447) transcript [2, 5]: −3.80
Fold change, OSTCL (NM_145303) transcript [2, 5]: n.s.
Fold change, P5MC5 (NM_002805) transcript [2, 5]: n.s.
Fold change, PLK1S1 (NM_018474) transcript [2, 5]: n.s.
Fold change, PPM1J (NM_005167) transcript [2, 5]: n.s.
Fold change, RNF26 (NM_032015) transcript [2, 5]: −1.77
Fold change, RRAD (NM_004185) transcript [2, 5]: 3.33
Fold change, SEMA3G (NM_000379) transcript [2, 5]: n.s.
Fold change, SLC22A16AS (NM_007105) transcript [2, 5]: −1.43
Fold change, SOCS6 (NM_004232) transcript [2, 5]: n.s.
Fold change, TMED1 (NM_006858) transcript [2, 5]: n.s.
Fold change, TRIP4 (NM_016213) transcript [2, 5]: n.s.
Fold change, UBE2L3 (NM_003347) transcript [2, 5]: n.s.
Fold change, UBE21 (NM_014176) transcript [2, 5]: −2.06
Fold change, W282 (NM_018029) transcript [2, 5]: 1.32
Fold change, ADAR (NM_001111) transcript [2, 6]: −1.33
Fold change, ALDH7AT (NM_001182) transcript [2, 6]: −1.82
Fold change, CD151 (NM_004357) transcript [2, 6]: n.s.
Fold change, CLIC1 (NM_001288) transcript [2, 6]: −1.29
Fold change, COMMO9 (NM_014186) transcript [2, 6]: 1.87
Fold change, COX5B (NM_001802) transcript [2, 6]: n.s.
Fold change, COX7C (NM_001867) transcript [2, 6]: n.s.
Fold change, DHRSX (NM_145177) transcript [2, 6]: 1.38
Fold change, EBP (NM_006579) transcript [2, 6]: n.s.
Fold change, EEF2 (NM_001901) transcript [2, 6]: n.s.
Fold change, FDXK (NM_003681) transcript [2, 6]: n.s.
Fold change, FN3KRP (NM_024619) transcript [2, 6]: −2.05
Fold change, HDLBP (NM_005336) transcript [2, 6]: n.s.
Fold change, HGD (NM_000187) transcript [2, 6]: −2.34
Fold change, IL6R (NM_000565) transcript [2, 6]: n.s.
Fold change, KHSRP (NM_003685) transcript [2, 6]: n.s.
Fold change, LOC389727 (NM_372092) transcript [2, 6]: n.s.
Fold change, MAT2A (NM_005911) transcript [2, 6]: −3.05
Fold change, MOL1 (NM_021960) transcript [2, 6]: 1.07
Fold change, MPP6 (NM_016447) transcript [2, 6]: n.s.
Fold change, OSTCL (NM_145303) transcript [2, 6]: n.s.
Fold change, P5MC5 (NM_002805) transcript [2, 6]: n.s.
Fold change, PLK1S1 (NM_018474) transcript [2, 6]: n.s.
Fold change, PPM1J (NM_005167) transcript [2, 6]: n.s.
Fold change, RNF26 (NM_032015) transcript [2, 6]: −1.51
Fold change, RRAD (NM_004185) transcript [2, 6]: 2.04
Fold change, SEMA3G (NM_000379) transcript [2, 6]: n.s.
Fold change, SLC22A16AS (NM_007105) transcript [2, 6]: −1.53
Fold change, SOCS6 (NM_004232) transcript [2, 6]: n.s.
Fold change, TMED1 (NM_006858) transcript [2, 6]: n.s.
Fold change, TRIP4 (NM_016213) transcript [2, 6]: n.s.
Fold change, UBE2L3 (NM_003347) transcript [2, 6]: n.s.
Fold change, UBE21 (NM_014176) transcript [2, 6]: −1.50
Fold change, W282 (NM_018029) transcript [2, 6]: n.s.

NOCC(=O)O [AOAA, aminooxyacetic acid]
toxicity of CDDP upon addition of the CCBL1 inhibitor [3]: reduced the toxicity of CDDP
toxicity of CDDP upon addition of the CCBL1 inhibitor (clonogenic survival) [4]: reduced the toxicity of CDDP
